This is an account of results in ChEMBL document CHEMBL3421591, “Improved Synthesis of Biotinol-5'-AMP: Implications for Antibacterial Discovery” (ACS Med Chem Lett, 2015).

≈ marks a conversion by molar mass, not a printed value. Calls of active or inactive are those of the source. The rule behind the calls is not given here.

Format in all cases: functional
Assay [1] deals with Mycobacterium tuberculosis. As to the kind of experiment: Antimicrobial activity against isoniazid-resistant Mycobacterium tuberculosis Who-185 after 16 to 20 hrs by two-fold microdilution broth method. Background: In broth dilution the organism is exposed to a series of concentrations in liquid medium.
Assay [2] relates to Mycobacterium tuberculosis. Put plainly: Antimicrobial activity against rifampicin-resistant Mycobacterium tuberculosis Who-185 after 16 to 20 hrs by two-fold microdilution broth method.
Assay [3] relates to Mycobacterium tuberculosis. Put plainly: Antimicrobial activity against pyrazinamide-resistant Mycobacterium tuberculosis BCG(SI) after 16 to 20 hrs by two-fold microdilution broth method.

What is called MIC is the least concentration at which growth counts as inhibited.

`Nc1ncnc2c1ncn2[C@@H]1O[C@H](COP(=O)(O)OCCCCC[C@@H]2SC[C@@H]3NC(=O)N[C@@H]32)[C@@H](O)[C@H]1O`: the minimum inhibitory concentration (MIC) was found to be 0.5 µg/mL (≈ 0.894 µM) in assay [1] and 2.5 µg/mL (≈ 4.47 µM) in assay [2]. In addition, the MIC entry in assay [3] is “inactive”.

Consider `Nc1ncnc2c1ncn2[C@@H]1O[C@H](CNS(=O)(=O)NC(=O)CCCC[C@@H]2SC[C@@H]3NC(=O)N[C@@H]32)[C@@H](O)[C@H]1O`, for which the MIC in assay [1], in assay [2] and in assay [3] was 0.1 µg/mL (≈ 0.175 µM) each time.
